Read-outs that look alike come from different tables or passages of the source.
How the values were obtained:
[1] = target: T1, recombinant N-terminal GST-tagged human Rho kinase 2 (ROCK2, amino acids 1-552) (Homo sapiens, UniProt O75116); assay: In vitro Rho kinase assay (luciferase-based ATP consumption), ROCK2; assay type: biochemical
T1 construct: ROCK2, amino acids 1-552; purchased Invitrogen Inc. PV3759
Procedure, shortened: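 GST-ROCK2 (aa 1-552, 0.82 μg/ml) with 100 μg/ml S6 peptide and 3 µM ATP in Tris pH 7.5 buffer with MgCl2/CaCl2/EGTA/BSA, compound added just after reaction start, 2 h at 30 °C. Remaining ATP read by luciferase luminescence. Efficacy expressed as percentage of H-1152P positive control.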

[2] = target: T2, recombinant N-terminal GST-tagged human Rho kinase 1 (ROCK1, amino acids 1-535) (Homo sapiens, UniProt Q13464); assay: In vitro Rho kinase assay (luciferase-based ATP consumption), ROCK1; assay type: biochemical
T2 construct: ROCK1, amino acids 1-535; purchased Invitrogen Inc. PV-3691
T2 sequence (Q13464 1-535): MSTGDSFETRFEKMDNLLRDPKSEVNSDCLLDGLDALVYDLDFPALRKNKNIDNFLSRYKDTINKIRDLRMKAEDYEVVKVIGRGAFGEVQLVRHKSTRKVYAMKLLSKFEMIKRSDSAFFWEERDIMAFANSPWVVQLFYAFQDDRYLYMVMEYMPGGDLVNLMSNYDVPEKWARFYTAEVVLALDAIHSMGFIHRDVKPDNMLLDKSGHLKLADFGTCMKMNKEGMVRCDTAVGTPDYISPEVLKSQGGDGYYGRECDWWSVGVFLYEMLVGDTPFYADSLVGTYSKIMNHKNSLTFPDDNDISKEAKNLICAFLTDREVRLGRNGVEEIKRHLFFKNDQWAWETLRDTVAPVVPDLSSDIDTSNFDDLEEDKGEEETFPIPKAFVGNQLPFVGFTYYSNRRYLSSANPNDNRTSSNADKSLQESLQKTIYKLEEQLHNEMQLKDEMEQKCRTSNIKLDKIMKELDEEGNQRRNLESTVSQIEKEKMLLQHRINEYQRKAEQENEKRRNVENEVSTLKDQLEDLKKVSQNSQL
Procedure, shortened: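 GST-ROCK1 (aa 1-535) at 0.82 μg/ml with 100 μg/ml S6 peptide and 3 µM ATP in Tris pH 7.5 buffer with MgCl2, CaCl2, EGTA, BSA; compound added after reaction start, 2 h at 30 °C. Remaining ATP read by luciferase luminescence; efficacy as percent of H-1152P positive control.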

[3] = recombinant GST-tagged human ROCK2, luciferase-based ATP consumption, read-out: ROCK2 IC50
[4] = recombinant GST-tagged human ROCK1, luciferase-based ATP consumption, read-out: ROCK1 IC50
[5] = ROCK2 IC50, recombinant GST-tagged human ROCK2, luciferase-based ATP consumption
[6] = ROCK1 IC50, recombinant GST-tagged human ROCK1, luciferase-based ATP consumption

T1 sequence (O75116 1-552): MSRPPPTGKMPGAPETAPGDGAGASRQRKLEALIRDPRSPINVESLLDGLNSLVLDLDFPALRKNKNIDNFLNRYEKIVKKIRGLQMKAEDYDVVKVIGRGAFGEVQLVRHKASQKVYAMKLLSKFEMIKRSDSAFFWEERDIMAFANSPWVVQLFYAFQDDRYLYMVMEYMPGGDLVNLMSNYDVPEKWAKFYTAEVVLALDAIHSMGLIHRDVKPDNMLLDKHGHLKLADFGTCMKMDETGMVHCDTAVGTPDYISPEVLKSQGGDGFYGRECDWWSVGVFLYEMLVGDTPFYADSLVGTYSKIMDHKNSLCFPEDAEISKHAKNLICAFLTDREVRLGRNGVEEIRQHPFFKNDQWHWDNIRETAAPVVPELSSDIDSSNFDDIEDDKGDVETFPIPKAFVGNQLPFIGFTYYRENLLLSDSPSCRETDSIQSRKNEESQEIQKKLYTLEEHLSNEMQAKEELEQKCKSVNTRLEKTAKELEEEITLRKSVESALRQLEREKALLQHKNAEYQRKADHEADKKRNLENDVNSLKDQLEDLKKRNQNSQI

SMILES	IC50 [1, 3]	IC50 [2, 4]	IC50 [1, 5]	IC50 [2, 6]
Cc1c(-c2ccnc(N)n2)sc2ccc(CNC(=O)c3cccc(C#N)c3)cc12 [Example 127, Cc1c(sc2ccc(CNC(═O)c3cccc(c3)C#N)cc12)-c4ccnc(N)n4]	< 5 µM	< 5 µM		
Cc1c(-c2ccnc(N)n2)sc2ccc(CNC(=O)C=Cc3ccccc3)cc12 [Example 128, Cc1c(sc2ccc(CNC(═O)C═Cc3ccccc3)cc12)-c4ccnc(N)n4]	< 5 µM	< 5 µM		
Cc1c(-c2ccnc(N)n2)sc2ccc(CNC(=O)c3ccccc3C=O)cc12 [Example 129, Cc1c(sc2ccc(CNC(═O)c3ccccc3C═O)cc12)-c4ccnc(N)n4]	< 5 µM	< 5 µM		
Cc1c(-c2ccnc(N)n2)sc2ccc(CNC(=O)c3ccc(C=O)cc3)cc12 [Example 130, Cc1c(sc2ccc(CNC(═O)c3ccc(C═O)cc3)cc12)-c4ccnc(N)n4]	< 5 µM	< 5 µM		
Cc1ccc(C(=O)NCc2ccc3sc(-c4ccnc(N)n4)c(C)c3c2)c(C)c1 [Example 131, Cc1ccc(c(C)c1)C(═O)NCc2ccc3sc(c(C)c3c2)-c4ccnc(N)n4]	< 5 µM	< 5 µM		
Cc1ccccc1CC(=O)NCc1ccc2sc(-c3ccnc(N)n3)c(C)c2c1 [Example 132, Cc1ccccc1CC(═O)NCc2ccc3sc(c(C)c3c2)-c4ccnc(N)n4]	< 5 µM	< 5 µM		
Cc1cccc(C(=O)NCc2ccc3sc(-c4ccnc(N)n4)c(C)c3c2)c1C [Example 133, Cc1cccc(c1C)C(═O)NCc2ccc3sc(c(C)c3c2)-c4ccnc(N)n4]	< 5 µM	< 5 µM		
Cc1ccc(C)c(C(=O)NCc2ccc3sc(-c4ccnc(N)n4)c(C)c3c2)c1 [Example 134, Cc1ccc(C)c(c1)C(═O)NCc2ccc3sc(c(C)c3c2)-c4ccnc(N)n4]	< 5 µM	< 5 µM		
Cc1cc(C)cc(C(=O)NCc2ccc3sc(-c4ccnc(N)n4)c(C)c3c2)c1 [Example 135, Cc1cc(C)cc(c1)C(═O)NCc2ccc3sc(c(C)c3c2)-c4ccnc(N)n4]	> 5 µM	> 5 µM		
Cc1ccc(C(=O)NCc2ccc3sc(-c4ccnc(N)n4)c(C)c3c2)cc1C [Example 136, Cc1ccc(cc1C)C(═O)NCc2ccc3sc(c(C)c3c2)-c4ccnc(N)n4]	> 5 µM	> 5 µM		
CCc1ccc(C(=O)NCc2ccc3sc(-c4ccnc(N)n4)c(C)c3c2)cc1 [Example 137, CCc1ccc(cc1)C(═O)NCc2ccc3sc(c(C)c3c2)-c4ccnc(N)n4]	> 5 µM	> 5 µM		
COc1ccc(C(=O)NCc2ccc3sc(-c4ccnc(N)n4)c(C)c3c2)cc1 [Example 138, COc1ccc(cc1)C(═O)NCc2ccc3sc(c(C)c3c2)-c4ccnc(N)n4]	< 5 µM	> 5 µM		
Cc1cccc(C(=O)NCc2ccc3sc(-c4ccnc(N)n4)c(C)c3c2)c1O [Example 139, Cc1cccc(C(═O)NCc2ccc3sc(c(C)c3c2)-c4ccnc(N)n4)c1O]	< 5 µM	> 5 µM		
Cc1c(-c2ccnc(N)n2)sc2ccc(CNC(=O)Cc3cccc(O)c3)cc12 [Example 140, Cc1c(sc2ccc(CNC(═O)Cc3cccc(O)c3)cc12)-c4ccnc(N)n4]	< 5 µM	> 5 µM		
Cc1ccc(O)c(C(=O)NCc2ccc3sc(-c4ccnc(N)n4)c(C)c3c2)c1 [Example 141, Cc1ccc(O)c(c1)C(═O)NCc2ccc3sc(c(C)c3c2)-c4ccnc(N)n4]	< 5 µM	> 5 µM		
Cc1c(-c2ccnc(N)n2)sc2ccc(CNC(=O)c3cc(O)ccc3O)cc12 [Example 142, Cc1c(sc2ccc(CNC(═O)c3cc(O)ccc3O)cc12)-c4ccnc(N)n4]	< 5 µM	> 5 µM		
Cc1c(-c2ccnc(N)n2)sc2ccc(CNC(=O)c3cccc(O)c3O)cc12 [Example 143, Cc1c(sc2ccc(CNC(═O)c3cccc(O)c3O)cc12)-c4ccnc(N)n4]	< 5 µM	> 5 µM		
Cc1c(-c2ccnc(N)n2)sc2ccc(CNC(=O)c3ccc(O)cc3O)cc12 [Example 144, Cc1c(sc2ccc(CNC(═O)c3ccc(O)cc3O)cc12)-c4ccnc(N)n4]	< 5 µM	> 5 µM		
Cc1ccc(C(=O)NCc2ccc3sc(-c4ccnc(N)n4)c(C)c3c2)cc1F [Example 145, Cc1ccc(cc1F)C(═O)NCc2ccc3sc(c(C)c3c2)-c4ccnc(N)n4]	< 5 µM	> 5 µM		
Cc1ccc(F)cc1C(=O)NCc1ccc2sc(-c3ccnc(N)n3)c(C)c2c1 [Example 146, Cc1ccc(F)cc1C(═O)NCc2ccc3sc(c(C)c3c2)-c4ccnc(N)n4]	< 5 µM	> 5 µM		
Cc1c(-c2ccnc(N)n2)sc2ccc(CNC(=O)c3ccccc3Cl)cc12 [Example 147, Cc1c(sc2ccc(CNC(═O)c3ccccc3Cl)cc12)-c4ccnc(N)n4]			< 5 µM	> 5 µM

SMILES	IC50 [1, 3]	IC50 [2, 4]	IC50 [1, 5]	IC50 [2, 6]
Cc1c(-c2ccnc(N)n2)sc2ccc(CNC(=O)c3ccc(Cl)nc3)cc12 [Example 148, Cc1c(sc2ccc(CNC(═O)c3ccc(Cl)nc3)cc12)-c4ccnc(N)n4]	< 5 µM	> 5 µM		
Cc1c(-c2ccnc(N)n2)sc2ccc(CNC(=O)c3cccnc3Cl)cc12 [Example 149, Cc1c(sc2ccc(CNC(═O)c3cccnc3Cl)cc12)-c4ccnc(N)n4]			< 5 µM	> 5 µM
Cc1c(-c2ccnc(N)n2)sc2ccc(CNC(=O)c3ccnc(Cl)c3)cc12 [Example 150, Cc1c(sc2ccc(CNC(═O)c3ccnc(Cl)c3)cc12)-c4ccnc(N)n4]	< 5 µM	< 5 µM		
Cc1c(-c2ccnc(N)n2)sc2ccc(CNC(=O)c3cc(Cl)ccn3)cc12 [Example 151, Cc1c(sc2ccc(CNC(═O)c3cc(Cl)ccn3)cc12)-c4ccnc(N)n4]	< 5 µM	< 5 µM		
Cc1c(-c2ccnc(N)n2)sc2ccc(CNC(=O)c3ccncc3Cl)cc12 [Example 152, Cc1c(sc2ccc(CNC(═O)c3ccncc3Cl)cc12)-c4ccnc(N)n4]			< 5 µM	< 5 µM
Cc1c(-c2ccnc(N)n2)sc2ccc(CNC(=O)c3c(F)cccc3F)cc12 [Example 153, Cc1c(sc2ccc(CNC(═O)c3c(F)cccc3F)cc12)-c4ccnc(N)n4]	< 5 µM	< 5 µM		
Cc1c(-c2ccnc(N)n2)sc2ccc(CNC(=O)c3cccc(F)c3F)cc12 [Example 154, Cc1c(sc2ccc(CNC(═O)c3cccc(F)c3F)cc12)-c4ccnc(N)n4]	< 5 µM	> 5 µM		
Cc1c(-c2ccnc(N)n2)sc2ccc(CNC(=O)c3ccc(F)cc3F)cc12 [Example 155, Cc1c(sc2ccc(CNC(═O)c3ccc(F)cc3F)cc12)-c4ccnc(N)n4]	< 5 µM	> 5 µM		
Cc1c(-c2ccnc(N)n2)sc2ccc(CNC(=O)c3cc(F)cc(F)c3)cc12 [Example 156, Cc1c(sc2ccc(CNC(═O)c3cc(F)cc(F)c3)cc12)-c4ccnc(N)n4]	< 5 µM	< 5 µM		
Cc1c(-c2ccnc(N)n2)sc2ccc(CNC(=O)c3ccc(F)c(F)c3)cc12 [Example 157, Cc1c(sc2ccc(CNC(═O)c3ccc(F)c(F)c3)cc12)-c4ccnc(N)n4]	< 5 µM	> 5 µM		
Cc1c(-c2ccnc(N)n2)sc2ccc(CNC(=O)CC(C)CC(C)(C)C)cc12 (stereo not shown) [Example 158, CC(CC(═O)NCc1ccc2sc(c(C)c2c1)-c3ccnc(N)n3)CC(C)(C)C]	> 5 µM	> 5 µM		
Cc1c(-c2ccnc(N)n2)sc2ccc(CNC(=O)C3CCc4ccccc43)cc12 (stereo not shown) [Example 159, Cc1c(sc2ccc(CNC(═O)C3CCc4ccccc34)cc12)-c5ccnc(N)n5]	< 5 µM	< 5 µM		
Cc1c(-c2ccnc(N)n2)sc2ccc(CNC(=O)C(Cl)(Cl)Cl)cc12 [Example 160, Cc1c(sc2ccc(CNC(═O)C(Cl)(Cl)Cl)cc12)-c3ccnc(N)n3]	< 5 µM	< 5 µM		
Cc1c(-c2ccnc(N)n2)sc2ccc(CNC(=O)C=Cc3ccccc3O)cc12 [Example 161, Cc1c(sc2ccc(CNC(═O)C═Cc3ccccc3O)cc12)-c4ccnc(N)n4]	< 5 µM	< 5 µM		
CC(=O)c1ccc(C(=O)NCc2ccc3sc(-c4ccnc(N)n4)c(C)c3c2)cc1 [Example 162, CC(═O)c1ccc(Cc1)C(═O)NCc2ccc3sc(c(C)c3c2)-c4ccnc(N)n4]	< 5 µM	> 5 µM		
Cc1c(-c2ccnc(N)n2)sc2ccc(CNC(=O)C=Cc3cccc(O)c3)cc12 [Example 163, Cc1c(sc2ccc(CNC(═O)C═Cc3cccc(O)c3)cc12)-c4ccnc(N)n4]	< 5 µM	< 5 µM		
CC(=O)c1cccc(C(=O)NCc2ccc3sc(-c4ccnc(N)n4)c(C)c3c2)c1 [Example 164, CC(═O)c1cccc(c1)C(═O)NCc2ccc3sc(c(C)c3c2)-c4ccnc(N)n4]	< 5 µM	> 5 µM		
CC(=O)c1ccccc1C(=O)NCc1ccc2sc(-c3ccnc(N)n3)c(C)c2c1 [Example 165, CC(═O)c1ccccc1C(═O)NCc2ccc3sc(c(C)c3c2)-c4ccnc(N)n4]	< 5 µM	> 5 µM		
Cc1c(-c2ccnc(N)n2)sc2ccc(CNC(=O)c3ccc(C(C)C)cc3)cc12 [Example 166, CC(C)c1ccc(cc1)C(═O)NCc2ccc3sc(c(C)c3c2)-c4ccnc(N)n4]	> 5 µM	> 5 µM		
Cc1ccccc1CCC(=O)NCc1ccc2sc(-c3ccnc(N)n3)c(C)c2c1 [Example 167, Cc1ccccc1CCC(═O)NCc2ccc3sc(c(C)c3c2)-c4ccnc(N)n4]	< 5 µM	> 5 µM		
